Assay results reported in patent US9040502B2, “Anti-XDR-TB drug, anti-MDR-TB drug, and combination anti-tuberculosis drug” (priority 2008, dated 2015).

Test system: Mycobacterium tuberculosis XDR-TB (0306-0206)
Assay type: cell-based
Conditions: ratio method, concentrations as in Table 1

N[C@@H]1CON=C1O [CS, cycloserine]
Resistance or sensitivity of M. tuberculosis XDR-TB (0306-0206) to the drug: sensitive

CC[C@@H](CO)NCCN[C@@H](CC)CO [EB, ethambutol]
Resistance or sensitivity of M. tuberculosis XDR-TB (0306-0206) to the drug: resistant

NNC(=O)c1ccncc1 [INH, isonicotinic acid hydrazide]
Resistance or sensitivity of M. tuberculosis XDR-TB (0306-0206) to the drug: resistant

Nc1ccc(C(=O)O)c(O)c1 [PAS, para-amino-salicylic acid]
Resistance or sensitivity of M. tuberculosis XDR-TB (0306-0206) to the drug: resistant

[H]/N=C(/N)N[C@H]1[C@H](O)[C@@H](O)[C@H](O[C@@H]2O[C@@H](C)[C@](O)(C=O)[C@H]2O[C@@H]2O[C@@H](CO)[C@H](O)[C@@H](O)[C@@H]2NC)[C@@H](N/C(N)=N\[H])[C@@H]1O [SM, streptomycin]
Resistance or sensitivity of M. tuberculosis XDR-TB (0306-0206) to the drug: resistant

CCc1cc(C(N)=S)ccn1 [TH, ethionamide]
Resistance or sensitivity of M. tuberculosis XDR-TB (0306-0206) to the drug: resistant

enviomycin [EVM]
Resistance or sensitivity of M. tuberculosis XDR-TB (0306-0206) to the drug: resistant
